# Data as given in patent US11780854B2, “Prolyl hydroxylase domain-containing protein (PHD) inhibitors and uses thereof” (Insilico Medicine IP Limited, priority 2021, dated 2023).
# Legend:
# PHD2 = PHD2 (Homo sapiens (Human), UniProt Q9GZT9); assay: PHD2 Enzymatic Assay (AlphaScreen); type: biochemical; details: 30 min preincubation at RT
# Hep3B cell = assay: EPO Elisa Assay in Hep3B cells; type: cell-based; details: Homo sapiens, 24 h at 37° C.
# PHD2, sequence (Q9GZT9 whole entry): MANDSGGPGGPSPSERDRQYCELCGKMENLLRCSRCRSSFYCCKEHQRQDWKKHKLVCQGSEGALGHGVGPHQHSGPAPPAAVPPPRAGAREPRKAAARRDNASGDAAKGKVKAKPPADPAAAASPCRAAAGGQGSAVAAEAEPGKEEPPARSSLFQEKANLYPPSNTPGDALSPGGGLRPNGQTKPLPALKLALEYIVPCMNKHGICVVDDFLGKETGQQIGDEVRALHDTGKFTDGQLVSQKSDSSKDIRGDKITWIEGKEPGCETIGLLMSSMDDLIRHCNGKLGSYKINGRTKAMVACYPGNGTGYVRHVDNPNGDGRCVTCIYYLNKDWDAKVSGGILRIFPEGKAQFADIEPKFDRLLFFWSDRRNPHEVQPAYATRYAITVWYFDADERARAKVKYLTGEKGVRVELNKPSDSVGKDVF
compound,measurement,setting,value
N#Cc1ccc(CNC(=O)c2ncc3nc(N4CCC5(COC5)C4)ccc3c2O)c(Cl)c1 [compound 8],IC50,PHD2,0.005 to 0.02 µM
same,EC50,Hep3B cell,2.5 to 5 µM
N#Cc1ccc(CNC(=O)c2ncc3nc(N4CCC5(COC5)C4)ccc3c2O)cn1 [compound 25],IC50,PHD2,< 0.005 µM
same,EC50,Hep3B cell,< 2.5 µM
N#Cc1ccc(CNC(=O)c2ncc3nc(N4CC5CC4CO5)ccc3c2O)cn1 (centres unmarked) [compound 30],EC50,Hep3B cell,2.5 to 5 µM
N#Cc1ccc(CNC(=O)c2ncc3nc(N4C[C@H]5C[C@@H]4CO5)ccc3c2O)cn1 [compound 43],IC50,PHD2,< 0.005 µM
same,EC50,Hep3B cell,2.5 to 5 µM
N#Cc1ccc(CNC(=O)c2ncc3nc(N4C[C@@H]5C[C@H]4CO5)ccc3c2O)cn1 [compound 44],IC50,PHD2,< 0.005 µM
same,EC50,Hep3B cell,2.5 to 5 µM
CN1C[C@@H]2C[C@H]1CN2c1ccc2c(O)c(C(=O)NCc3ccc(C#N)cc3Cl)ncc2n1 [compound 58],IC50,PHD2,< 0.005 µM
same,EC50,Hep3B cell,10 to 100 µM
CN1CCC2(CCN(c3ccc4c(O)c(C(=O)NCc5ccc(C#N)nc5)ncc4n3)CC2)C1=O [compound 67],IC50,PHD2,< 0.005 µM
same,EC50,Hep3B cell,5 to 7.5 µM
N#Cc1ccc(CNC(=O)c2ncc3nc(N4C[C@@H]5C[C@H]4CN5C4CC4)ccc3c2O)c(Cl)c1 [compound 68],IC50,PHD2,0.005 to 0.02 µM
same,EC50,Hep3B cell,< 2.5 µM
N#Cc1ccc(CNC(=O)c2ncc3nc(N4C[C@H]5C[C@@H]4CN5C4CC4)ccc3c2O)c(Cl)c1 [compound 69],IC50,PHD2,0.005 to 0.02 µM
same,EC50,Hep3B cell,2.5 to 5 µM
N#Cc1ccc(CNC(=O)c2ncc3nc(N4C[C@@H]5C[C@H]4CN5C4CC4)ccc3c2O)cn1 [compound 80],IC50,PHD2,< 0.005 µM
same,EC50,Hep3B cell,< 2.5 µM
CC(C)(C)OC(=O)N1CC2(C1)CN(c1ccc3c(O)c(C(=O)NCc4ccc(C#N)nc4)ncc3n1)C2 [compound 91],IC50,PHD2,< 0.005 µM
same,EC50,Hep3B cell,< 2.5 µM
CC(C)(C)OC(=O)N1C[C@@H]2C[C@H]1CN2c1ccc2c(O)c(C(=O)NCc3ccc(C#N)nc3)ncc2n1 [compound 116],IC50,PHD2,< 0.005 µM
same,EC50,Hep3B cell,10 to 100 µM
CC(C)(C)OC(=O)N1C[C@@H]2CN(c3ccc4c(O)c(C(=O)NCc5ccc(C#N)nc5)ncc4n3)C[C@@H]2C1 [compound 117],IC50,PHD2,< 0.005 µM
same,EC50,Hep3B cell,2.5 to 5 µM
CC(C)(C)OC(=O)N1CCOC2(C1)CN(c1ccc3c(O)c(C(=O)NCc4ccc(C#N)nc4)ncc3n1)C2 [compound 118],IC50,PHD2,< 0.005 µM
same,EC50,Hep3B cell,2.5 to 5 µM
CC(C)(C)OC(=O)N[C@@H]1CN(c2ccc3c(O)c(C(=O)NCc4ccc(C#N)nc4)ncc3n2)CC12CC2 [compound 145],IC50,PHD2,< 0.005 µM
same,EC50,Hep3B cell,10 to 100 µM
